# Measured values taken from patent US20030161893A1, “PTPase inhibitors and methods of using the same” (priority 2001, published 2003).
# “And” between values parts separate entries of the source, which are not always exact repeats. Equal entries are not always repeated.
# Experiments:
# NB4 cells [1] = experiment: NB4 cell growth (MTT), cell cycle and Annexin V; format: cell-based, human; conditions: 3 days; sodium stibogluconate 250 μg/ml, ATRA 1 μM
# Method: The NB4 cell line (Lanotte et al., Blood 77, 1080 (1991)) was a gift from Dr. Dan Lindner of the Cleveland Clinic Foundation. […] and U937 cell lines were purchased from American Type Culture Collection (Rockville, Md.). These human […] cell lines were maintained in RPMI 1640 medium supplemented with 10% fetal calf serum (FCS). For cell proliferation assays, cells were cultured at 37° C. in 10% FCS medium containing various amounts of sodium stibogluconate for 6 days. The cell numbers in the cultures were determined by an MTT assay as described previously in Mosmann, J. Imunol. Methods 65, 55 (1983).
# The cell cycle was analyzed by flow cytometry after 3 days of culture of NB4 cells in the absence or presence of sodium stibogluconate (250 μg/ml) or ATRA (1 μM). Briefly, the cells were fixed in cold ethanol and incubated for 30 minutes at 4° C. in the dark with a solution of […] propidium iodide, 1 mg/ml RNase and 0.1% NP-40. Analysis was performed immediately after staining using the CELLFIT program (Becton Dickinson, Mountain View, Calif.).
# Annexin V staining of exposed membrane phospholipid phosphatidylserine (PS) was done using the Annexin V assay kit (Pharmingen, San Diego, Calif.). Briefly, NB4 cells were cultured in the 10% FCS RPMI 1640 medium in the absence or presence of sodium stibogluconate (250 μg/ml) or ATRA (1 μM) for 3 days. Cells were then washed in PBS twice and stained in binding buffer (10 mM Hepes, pH 7.4; 140 mM NaCl; 2.5 mM CaCl2) containing Annexin V-FITC and propidium iodide for 15 min. The reaction was stopped by adding 10 volumes of binding buffer and analyzed by FACS (Becton Dickinson Facsvantage).
# U937 cells = experiment: U937 cell differentiation (NBT reduction); format: cell-based, human; conditions: day 6
# Method: (§1) Differentiation of AML cell lines was assessed by their ability to produce superoxide as measured by reduction of NBT to formazan and by analysis of expression of CD11b surface marker by flow cytometry. For NBT reduction, each cell suspension was mixed with an equal volume of solution containing 1 mg/ml of NBT (Sigma) and 2.5 μg/ml of TPA for 30 minutes at 37° C. After incubation, cells containing the purple formazan deposits and cells devoid of NBT-reducing activity (white cells) in each sample were determined by counting 200 cells under microscope. Data is expressed as a percentage based on the following ratio: purple cells/purple+white cells. For analysis of cell surface antigens, cells were exposed to phycoerythrin (PE)-conjugated murine anti-human CD11b (DAKO Corp., Carpinteria, Calif.). Analysis of fluorescence was performed on a FACScan flow cytometer (Beckton Dickinson, Mountain View, Calif.).
# HL-60 cells = experiment: HL-60 cell differentiation (NBT reduction); format: cell-based, human; conditions: day 6
# Method: as §1
# PRL-1 = biological target: T1, PRL-1 (Homo sapiens, UniProt Q93096); experiment: In vitro PTPase assay, recombinant PRL-1; format: biochemical; conditions: 0.1-100 μg/ml
# T1 construct: cDNAs of human PRL-1, PRL-2 and PRL-3 coding region were derived by RT-PCR from H9 cells; made in house; host or cells: DH5a bacteria (E. coli)
# From the text: (§2) Sodium stibogluconate, suramin, sodium orth ovanadate and GST fusion protein of SHP-1 have been described previously (Pathak et al., J. Imumol. 167, 3391 (2001)). Meglumine antimonate was obtained from Aventis. cDNAs of human PRL-1, PRL-2 and PRL-3 coding region were derived by RT-PCR from H9 cells (Safai, et al., Lancet 1, 1438 (1984)) and inserted in frame into the pGEX vector. cDNA of PRL-1R86 was generated by recombinant DNA technique using PRL-1 cDNA as template following established procedures (Jiao, et al., Mol. Cell. Biol. 16, 6985 (1996)). […]
# (§3) In vitro PTPase assays were used to determine the effects of compounds on recombinant PTPases, following established procedures using a synthetic phosphotyrosine peptide or DiFMUP as the substrate (Pathak et al., J. Imumol. 167, 3391 (2001)). […] PTPase activity of individual reactions was measured by adding 100 μL of malachite green solution (UBI) and then quantifying the amounts of free phosphate cleaved by the PTPase from the peptide substrate by spectrometry (OD660 nm). […] Relative PTPase activities were calculated based on the formula: (PTPase activity in the presence of an inhibitory compound/PTPase activity in the absence of the compound)×100%. […]
# SHP-1 = biological target: T2, SHP-1 (Mus musculus, UniProt P29351); experiment: In vitro PTPase assay, GST/SHP-1 fusion protein; format: biochemical; conditions: 3-4 μg/ml or 10-100 μg/ml
# T2 construct: made in house
# Method: In vitro PTPase activities were measured using the commercial protein tyrosine phosphatase assay kit (Upstate Biotechnology, Inc. (“UBI”)) following established procedure known to one of skill in the art. […] 100 μl of Malachite Green solution was added and incubated for 5 minutes, and the absorbance at 660 nm was measured after 5 minutes.
# The beads were then either subjected to in vitro PTPase assays or washed 3 times in Tris buffer then subjected to in vitro PTPase assays.
# Briefly, individual PTPases (0.1 μg/reaction) in 50 μL of PTPase buffer (50 mM Tris, pH 7.4) were incubated at 22° C. for 10 minutes or as indicated in the absence or presence of inhibitory compounds. […] […] […] Relative PTPase activities were calculated based on the formula: (PTPase activity in the presence of an inhibitory compound/PTPase activity in the absence of the compound)×100%. To assess the reversibility of PTPase inhibition, GST fusion proteins of the PTPases bound on glutathione beads (Pharmacia) were pre-incubated with cold Tris buffer (50 mM Tris, pH 7.0) or Tris buffer containing the inhibitor at 4° C. for 30 minutes. The beads were then washed three times in cold Tris buffer or not washed prior to subjecting to in vitro PTPase assays.
# WM9 cells = experiment: Cell proliferation assay (MTT), WM9 melanoma cells; format: cell-based, human
# Method: For cell proliferation assays, cells were grown in 10% FCS culture medium containing various amounts of IFNs and/or sodium stibogluconate in 96 well plates and cultured at 37° C. for 3 or 6 days as indicated. The numbers of viable cells in proliferation assays were determined by MTT assays as described in Phatak et al., J. Immunol. 167, 3391 (2001).
# Dose response curves were generated for each drug alone, and also the combinations. Median effect plots were generated for IFNs alone, sodium stibogluconate alone, and the combination. The combination index (CI) was determined and plotted vs. fraction affected (FA). Data were analyzed in both modes, mutually exclusive and mutually nonexclusive. The interaction between two mutually nonexclusive drugs is described by the Equation CI=D1/D×1+D2/D×2+D1D2/D×1D×2, where D×1 and D×2 are the doses of drug 1 and drug 2 that are required to inhibit growth×%. […] When CI<1, drugs are synergistic, when CI=1, drugs are additive, and when CI>1, drugs are antagonistic.
# PRL-3 = biological target: T3, PRL-3 (Homo sapiens, UniProt O75365); experiment: In vitro PTPase assay, recombinant PRL-3; format: biochemical; conditions: 0.1-100 μg/ml
# T3 construct: cDNAs of human PRL-1, PRL-2 and PRL-3 coding region were derived by RT-PCR from H9 cells; made in house; host or cells: DH5a bacteria (E. coli)
# From the text: Sodium stibogluconate, suramin, sodium orth ovanadate and GST fusion protein of SHP-1 have been described previously (Pathak et al., J. Imumol. 167, 3391 (2001)). Meglumine antimonate was obtained from Aventis. cDNAs of human PRL-1, PRL-2 and PRL-3 coding region were derived by RT-PCR from H9 cells (Safai, et al., Lancet 1, 1438 (1984)) and inserted in frame into the pGEX vector. cDNA of PRL-1R86 was generated by recombinant DNA technique using PRL-1 cDNA as template following established procedures (Jiao, et al., Mol. Cell. Biol. 16, 6985 (1996)). GST fusion proteins of the PRL phosphatases were prepared from DH5a bacteria transformed with the pGEX fusion protein constructs as described previously (Yi, et al., Mol. Cell. Biol. 12, 836 (1992)). cDNAs encoding the PRLs tagged at the N-termini with the Flag epitope (Castrucci, et al., J. Virol. 66, 4647 (1992)) were generated via recombinant DNA technique, sequenced to confirm their identities and cloned into the pBabepuro vector (Yang, et al., Blood 91, 3746 (1998)). Anti-Flag monoclonal antibody (M2, Sigma) was purchased from a commercial source. A synthetic phosphotyrosine peptide (Arg-Arg-Leu-Ile-Glu-Asp-Ala-Gle-Tyr-Ala-Ala-Arg-Gly (SEQ ID NO: 3), wherein the tyrosine is phosphorylated; UBI) and DiFMUP (6, 8-difluoro-4-methylumbelliferyl phosphate, Molecular Probes) were purchased as substrates for PTPase assays.
# In vitro PTPase assays were used to determine the effects of compounds on recombinant PTPases, following established procedures using a synthetic phosphotyrosine peptide or DiFMUP as the substrate (Pathak et al., J. Imumol. 167, 3391 (2001)). Briefly, individual PTPases (0.1 μg/reaction) in 50 μL of PTPase buffer (50 mM Tris, pH 7.4) were incubated at 22° C. for 10 minutes or as indicated in the absence or presence of inhibitory compounds. Substrates (0.2 mM phosphotyrosine peptide) were then added and allowed to react at 22° C. for 18 hrs. PTPase activity of individual reactions was measured by adding 100 μL of malachite green solution (UBI) and then quantifying the amounts of free phosphate cleaved by the PTPase from the peptide substrate by spectrometry (OD660 nm). PTPase assays using DiFMUP as a substrate were conducted following a previously described procedure (Matter, et al., Biochem. Biophys. Res. Comm. 283, 1061 (2001)). Relative PTPase activities were calculated based on the formula: (PTPase activity in the presence of an inhibitory compound/PTPase activity in the absence of the compound)×100%. To assess the reversibility of PTPase inhibition, GST fusion proteins of the PTPases bound on glutathione beads (Pharmacia) were pre-incubated with cold Tris buffer (50 mM Tris, pH 7.0) or Tris buffer containing the inhibitor at 4° C. for 30 minutes. The beads were then washed three times in cold Tris buffer or not washed prior to subjecting to in vitro PTPase assays.
# PRL-2 = biological target: T4, PRL-2 (Homo sapiens, UniProt Q12974); experiment: In vitro PTPase assay, recombinant PRL-2; format: biochemical
# T4 construct: cDNAs of human PRL-1, PRL-2 and PRL-3 coding region were derived by RT-PCR from H9 cells; made in house; host or cells: DH5a bacteria (E. coli)
# From the text: as §2, §3
# GSTm8 = experiment: In vitro PTPase assay, GSTm8; format: biochemical; conditions: 3-4 μg/ml or 10-100 μg/ml
# MKP1 = biological target: T5, MKP1 (Homo sapiens, UniProt P28562); experiment: In vitro PTPase assay, GST/MKP1 fusion protein; format: biochemical
# T5 construct: a pGEX construct containing the coding region of MKP1 cDNA derived by RT-PCR; made in house; host or cells: DH5a bacteria (E. coli)
# T5 sequence (P28562 1-367): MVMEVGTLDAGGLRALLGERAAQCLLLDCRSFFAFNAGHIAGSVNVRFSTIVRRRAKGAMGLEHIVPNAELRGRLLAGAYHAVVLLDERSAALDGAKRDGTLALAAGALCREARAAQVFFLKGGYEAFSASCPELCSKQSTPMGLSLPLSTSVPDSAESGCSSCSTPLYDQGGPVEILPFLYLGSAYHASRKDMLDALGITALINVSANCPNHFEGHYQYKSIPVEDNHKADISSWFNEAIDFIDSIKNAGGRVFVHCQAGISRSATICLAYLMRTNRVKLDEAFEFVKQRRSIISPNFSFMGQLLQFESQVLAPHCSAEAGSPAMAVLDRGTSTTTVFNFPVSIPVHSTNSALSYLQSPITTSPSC
# NB4 cells [2] = experiment: NB4 cell differentiation (NBT reduction, CD11b); format: cell-based, human
# Method: as §1
# [3] = sodium stibogluconate 400 μg/ml, GM-CSF 25 ng/ml, ATRA
# T2 sequence (P29351 whole entry, the tested form may be a part): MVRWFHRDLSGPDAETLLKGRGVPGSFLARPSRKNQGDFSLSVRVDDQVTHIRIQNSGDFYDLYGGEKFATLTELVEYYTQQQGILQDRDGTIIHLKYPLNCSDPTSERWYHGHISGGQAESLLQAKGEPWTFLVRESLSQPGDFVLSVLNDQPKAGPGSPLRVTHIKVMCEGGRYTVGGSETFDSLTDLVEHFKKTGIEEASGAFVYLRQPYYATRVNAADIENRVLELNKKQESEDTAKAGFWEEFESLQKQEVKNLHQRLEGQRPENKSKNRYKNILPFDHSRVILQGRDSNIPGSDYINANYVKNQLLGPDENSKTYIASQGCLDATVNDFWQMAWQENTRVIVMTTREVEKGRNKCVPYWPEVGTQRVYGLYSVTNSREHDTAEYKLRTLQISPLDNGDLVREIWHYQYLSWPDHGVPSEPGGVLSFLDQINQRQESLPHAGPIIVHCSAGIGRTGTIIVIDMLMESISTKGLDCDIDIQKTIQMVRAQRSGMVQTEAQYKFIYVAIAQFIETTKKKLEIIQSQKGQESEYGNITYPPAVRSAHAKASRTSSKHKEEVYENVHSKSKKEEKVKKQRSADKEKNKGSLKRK
# T4 sequence (Q12974 whole entry): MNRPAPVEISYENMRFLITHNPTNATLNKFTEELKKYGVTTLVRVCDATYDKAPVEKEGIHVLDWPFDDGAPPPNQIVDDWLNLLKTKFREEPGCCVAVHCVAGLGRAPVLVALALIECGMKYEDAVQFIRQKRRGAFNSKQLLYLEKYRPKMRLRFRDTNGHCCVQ
# T1 sequence (Q93096 whole entry): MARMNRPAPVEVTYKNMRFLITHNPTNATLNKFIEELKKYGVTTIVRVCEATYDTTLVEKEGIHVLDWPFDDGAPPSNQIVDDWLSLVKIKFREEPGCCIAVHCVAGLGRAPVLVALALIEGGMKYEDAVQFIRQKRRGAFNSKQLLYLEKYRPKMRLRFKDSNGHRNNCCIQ
# T3 sequence (O75365 whole entry): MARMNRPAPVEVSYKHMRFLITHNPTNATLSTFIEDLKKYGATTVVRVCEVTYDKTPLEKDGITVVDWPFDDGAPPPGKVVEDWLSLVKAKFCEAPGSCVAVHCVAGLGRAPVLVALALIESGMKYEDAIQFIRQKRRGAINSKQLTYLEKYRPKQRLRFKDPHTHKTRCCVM
compound,measurement,setting,value
"CC1=C(/C=C/C(C)=C/C=C/C(C)=C/C(=O)O)C(C)(C)CCC1 [ATRA, All-trans-retinoic acid]",cell cycle of NB4 cells,NB4 cells [1],arrested at GI phase
same,NBT-positive (differentiated) U937 cells,U937 cells; [3],72% and 73%
same,NBT-positive (differentiated) HL-60 cells,HL-60 cells; [3],90%
CC(=O)N1CCN(c2ccc(OCC3COC(Cn4ccnc4)(c4ccc(Cl)cc4Cl)O3)cc2)CC1 (centres unmarked) [ketoconazole],retained PRL-1 PTPase activity,PRL-1,60-70%
same,inhibitory activity against SHP-1,SHP-1,no obvious inhibitory activity
same,inhibition at 40 µg/mL,"WM9 cells; Homo sapiens, WM9, 144 h, read-out: growth inhibition of WM9 cells, single agent",67%
same,effect on IFN-alpha activity in WM9,WM9 cells; ketoconazole 40 μg/ml,minor augmenting effect
same,"activity against WM9 cells, single agent or with IFN-alpha","WM9 cells; ketoconazole 0.625-20 μg/ml, 6 days",no apparent activity
same,remaining PRL-3 PTPase activity,PRL-3,25-40%
same,effectiveness against PRL-2,PRL-2,not effective
same,inhibitory activity against GSTm8,GSTm8,no obvious inhibitory activity
N=C(N)c1ccc(OCCCCCOc2ccc(C(=N)N)cc2)cc1 [pentamidine],retained PRL-1 PTPase activity,PRL-1,70-80%
same,inhibitory activity against SHP-1,SHP-1,no obvious inhibitory activity
same,"growth inhibition of WM9 cells, single agent","WM9 cells; pentamidine 2.5-5 μg/ml, 6 days",86-97%
same,effect on IFN-alpha-induced growth inhibition of WM9,"WM9 cells; pentamidine, most obviously at 0.625-1.25 μg/ml",augmented IFN-alpha-induced growth inhibition
same,remaining PRL-3 PTPase activity,PRL-3,20-30%
same,effectiveness against PRL-2,PRL-2,not effective
same,inhibition of MKP1,MKP1,substantial inhibition
same,inhibitory activity against GSTm8,GSTm8,no obvious inhibitory activity
GM-CSF: recombinant human granulocyte/macrophage colony stimulating factor,effect on NB4 cell differentiation,NB4 cells [2]; GM-CSF alone,no detectable effect
same,augmentation of sodium stibogluconate-induced NB4 differentiation,NB4 cells [2]; GM-CSF with sodium stibogluconate,failed to augment
same,maximal increase of NBT-positive U937 cells,U937 cells; GM-CSF 25 ng/ml alone,8-10%
same,maximal increase of NBT-positive HL-60 cells,HL-60 cells; GM-CSF 25 ng/ml alone,8-10%
